Experimental data published in article PMC5384453, “A multi-functional PEGylated gold(III) compound: potent anti-cancer properties and self-assembly into nanostructures for drug co-delivery” (Chemical Science, 2016).
Where two headings read alike, the source gives them in different places.

What was measured:
HeLa = assay: In vitro cytotoxicity, MTT assay; assay type: cell-based, human; details: HeLa
Experimental: (§2) In vitro cytotoxicity assays. HeLa, NCI-H460, HCT116, A2780, A2780cis and
(§3) cells), respectively, were seeded in 96-well plates for 24 h. The cells were then treated with a serial concentration of gold(III) complexes and incubated at 37 °C under a 5% CO2 atmosphere for 72 h. For nanostructures of 1, 2 and NC1, they were dissolved in
(§4) cisplatin were dissolved in culture medium-DMSO solution mixture (99:1, v/v).

NCI-H460 = assay: In vitro cytotoxicity, MTT assay; assay type: cell-based, human; details: NCI-H460, MTT assay, 72 h incubation
Experimental: as §2, §3, §4

HCT116 = assay: In vitro cytotoxicity, MTT assay; assay type: cell-based, human; details: HCT116, MTT assay, 72 h incubation
Experimental: as §2, §3, §4

A2780 = assay: In vitro cytotoxicity, MTT assay; assay type: cell-based, human; details: A2780, MTT assay, 72 h incubation
Experimental: as §2, §3, §4

A2780cis = assay: In vitro cytotoxicity, MTT assay; assay type: cell-based, human; details: for IC50: A2780cis, MTT assay, 72 h incubation; for Resistance found in A2780cis: IC50 of A2780cis cells / IC50 of A2780 cells
Experimental: as §2, §3, §4

A2780adr = assay: In vitro cytotoxicity, MTT assay; assay type: cell-based, human; details: for IC50: A2780adr; for Resistance found in A2780adr: IC50 of A2780adr cells / IC50 of A2780 cells
Experimental: as §2, §3, §4

MIHA = assay: In vitro cytotoxicity, MTT assay; assay type: cell-based
Experimental: as §2, §3, §4

HCT116 cells = assay: Time-dependent induction of apoptosis, Caspase-3/7 Green ReadyProbes fluorescence microscopy; assay type: cell-based, human; details: HCT116, NC1 ([1] = 3.5 μM and [DOX] = 0.5 μM) or DOX alone (0.5 μM), Caspase-3/7 Green Reagent
Experimental: B from 20.1 to 25 min and returned to initial conditions and equilibrated for 3 minutes.
The flow rate was 0.4 mL/min and the injection volume was 2 µL. The UPLC-QTOF-MS chromatograms of 1, 3, 4 and solvent control in acetonitrile were also recorded for the interpretation of UPLC-QTOF-MS chromatograms of the cell lysate.
Cellular uptake experiments. HCT116, A2780 and A2780adr (2×10 5 cells), and MIHA and NCM460 (3.5×10 5 cells) cells were grown on 6-well plates at 37 °C under an atmosphere of 5% CO2 for 48 h. The culture medium was then removed, washed with PBS solution, and incubated with culture medium containing nanostructures of 1 […]
Au1a (2 µM; with 1 vol% DMSO). At a predetermined time, the culture medium was removed and washed with PBS solution for three times. The cells were then harvested and dispersed in ice-cold water. An aliquot of the cell suspension was subjected to Bio-rad protein assay with a microtitre plate reader at the absorbance at 595 nm, using bovine serum albumin as the protein standard. […] The solution mixture was heated at 65 °C with shaking overnight, and the gold content was determined by ICP-MS. […]
then removed and washed with PBS solution. The cells were then incubated with culture medium containing nanostructures of 1 (2 µM) and CellEvent Caspase-3/7 Green ReadyProbes Reagent (30 µL), or Au1a (2 µM; with 1 vol% DMSO) and CellEvent Caspase-3/7 Green ReadyProbes Reagent (30 µL) at 37 °C under an atmosphere of 5% CO2. Fluorescence images at different time intervals were recorded by the fluorescence microscope without washing the cells. […]
once every 2–3 days. The tumor volume was calculated by the equation: Volume (mm3) = l×w2/2, where l and w were the length and width of the tumor. At the end of the treatment, the nude mice were sacrificed and the tumor weight was measured. […]
At a predetermined time, the culture medium was removed and washed with PBS solution for three times. […] An aliquot of the cell suspension was subjected to Bio-rad protein assay with a microtitre plate reader at the absorbance at 595 nm, using bovine serum albumin as the protein standard. […]

NCM460 = assay: In vitro cytotoxicity, MTT assay; assay type: cell-based, human; details: 72 h incubation
Experimental: as §2, §3, §4

CCD-19Lu = assay: In vitro cytotoxicity, MTT assay; assay type: cell-based, human; details: 72 h incubation
Experimental: as §2, §3, §4

CHEM-5 = assay: In vitro cytotoxicity, MTT assay; assay type: cell-based, human; details: CHEM-5, MTT assay, 72 h
Experimental: (§1) page 7: The gold content of the nanocomposites was determined by dissolving the nanocomposites in conc. HNO3 / conc. HCl solution mixture (9:1, v/v; 30 µL), followed by ICP-MS analysis. […] The nanocomposite (10 µL) was dissolved in acetonitrile (90 µL), and subjected to gentle shaking overnight. The solution mixture was then dried under vacuum, and re- dispersed in 0.1 vol% formic acid in water/acetonitrile (7/3, v/v; 1 mL) solution mixture. […] The mobile phase was 0.1 vol% formic acid in water/acetonitrile (7:3, v/v) solution mixture. […] The cells were then treated with a serial concentration of gold(III) complexes and incubated at 37 °C under a 5% CO2 atmosphere for 72 h. […] After incubation for 72 h, MTT in PBS solution (5 mg/mL, 10 μL) was added to each well. The plates were incubated at 37 °C under a 5% CO2 atmosphere for another 4 h, and the cells were lysed by the addition of SDS solution (10%, w/w) with 0.01 M HCl (100 μL). After incubation in dark at 37 °C overnight, the cell viability after treatment was determined by a microtitre plate reader monitoring at the absorbance at 590 nm, P.7 page 8: which reflected the amount of blue formazan formed. IC50 values were then determined by CompuSyn S6 from three independent measurements. Study on the release of hydrolyzed product from 1 and 2 in aqueous buffer solutions by ICP-MS. […] At a predetermined time, an aliquot of solution was removed and dissolved in HNO3/HCl solution mixture (9:1, v/v; volume of aliquot: volume of acid mixture = 1:3). The solution mixture was heated at 65 °C with shaking overnight, and the gold content was determined by ICP-MS from three independent aliquots. […] 37 °C for 24 h. […] Analysis of cell lysate of HCT116 cells treated with complexes 1 and 3 by UPLC- QTOF-MS. […] All the cells were harvested, washed with PBS solution for three times and dispersed in ice-cold water. The cell suspension was then added to ice-cold acetonitrile (1:3, v/v), vortexed for 5 min, and centrifuged at 10,000 rpm at 4 °C. The supernatant was collected, dried under vacuum and the solid was re-dissolved in acetonitrile (HPLC grade) for UPLC- QTOF-MS experiments. The mobile phase was a mixture of 0.1% formic acid in water (phase A) and 0.1% formic acid in acetonitrile (phase B). […] P.46

L02 = assay: In vitro cytotoxicity, MTT assay; assay type: cell-based, human; details: 72 h
Experimental: as §1

[1] = 72 h, read-out: Total dose at IC50
[2] = MTT assay, 72 h incubation, read-out: IC50

Compound: COc1cccc2c1C(=O)c1c(O)c3c(c(O)c1C2=O)C[C@@](O)(C(=O)CO)C[C@@H]3O[C@H]1C[C@H](N)[C@H](O)[C@H](C)O1 [DOX, Doxorubicin, reference compound]
- IC50 (HeLa; [1]): 570 nM
- IC50 (HeLa; [2]): 570 ± 60 nM
- IC50 (HeLa; read-out: DOX at IC50, 72 h): 570 nM
- IC50 (NCI-H460): 40 ± 10 nM
- IC50 (HCT116): 140 ± 20 nM
- IC50 (A2780): 50 ± 10 nM
- IC50 (A2780cis): 50 ± 10 nM
- Resistance found in A2780cis (A2780cis): 1.20
- IC50 (A2780adr; [1]): 680 nM
- IC50 (A2780adr; [2]): 680 ± 50 nM
- Resistance found in A2780adr (A2780adr): 14.3
- IC50 (A2780adr; read-out: DOX at IC50, 72 h): 680 nM
- IC50 (MIHA; [1]): 100 nM
- IC50 (MIHA; [2]): 100 ± 10 nM
- IC50 (MIHA; read-out: DOX at IC50, 72 h): 100 nM
- incubation time for induction of apoptosis (HCT116 cells): 30 h

Compound: N.N.[Cl][Pt][Cl] [Cisplatin, cisplatin, reference compound]
- IC50 (HeLa; [2]): 19800 ± 1420 nM
- IC50 (NCI-H460): 65400 ± 5060 nM
- IC50 (HCT116): 15700 ± 2200 nM
- IC50 (A2780): 2590 ± 300 nM
- IC50 (A2780cis): 8360 ± 50 nM
- Resistance found in A2780cis (A2780cis): 3.23
- IC50 (A2780adr; [2]): 12700 ± 1830 nM
- Resistance found in A2780adr (A2780adr): 5
- IC50 (MIHA; [2]): 17600 ± 1310 nM
- IC50 (NCM460): 12300 ± 870 nM
- IC50 (CCD-19Lu): 49100 ± 5430 nM
- IC50 (CHEM-5): 13000 ± 200 nM
- IC50 (L02): 5900 ± 20 nM
